Results taken from patent US20140017339A1, “MATERIALS AND METHODS FOR TREATING RADIATION POISONING” (priority 2010, published 2014).

Legend:
[1] = test system: marrow HPC of irradiated mice; assay: Colony assays: total CFC (CFU-GM, BFU-E, CFU-GEMM) per femur after irradiation; format: in vivo, C57B1/6 mice
Experimental: After 30 days, analysis of total CFC(CFU-GM, BFU-E and CFU-GEMM) was performed in methylcellulose culture. Referring now to FIG. 2B, data are Mean±SEM from N=5 mice per group, each assayed individually.
Irradiated mice were identified by ear punches and treated with either a single subcutaneous dose of dmPGE2 (40 μg/mouse) or vehicle control at 6 hours post-irradiation (N=20 mice per group, evenly split male/female); 6 mg/kg meloxicam dosed once daily on days 2 through 5 post-irradiation or vehicle control (N=20 or 40 mice per group, respectively, evenly split male/female); or a single subcutaneous dose of CoCl2 (60 mg/kg) at 6 hours post-irradiation (N=20 mice per group, evenly split male/female). One mouse per treatment group was housed in each individual cage.
After 35 days, remaining irradiated mice were sacrificed, bone marrow acquired from femurs, and total CFC including CFU-GM, BFU-E and CFU-GEMM were enumerated in 1% methylcellulose/IMDM containing 30% HI-FBS, 1 U/ml rhEPO, 10 ng/ml rhGM-CSF and 50 ng/ml rmSCF as described (Broxmeyer et al., 2007; Fukuda et al., 2007). All cultures were established in triplicate from individual animals, incubated at 37° C., 5% CO2, 5% O2 in air for 7 days and colonies quantified by microscopy.
Referring now to FIG. 2B, after 30 days, analysis of total CFC(CFU-GM, BFU-E and CFU-GEMM) was performed in methylcellulose culture. Data are Mean±SEM from N=5 mice per group, each assayed individually.

[2] = test system: irradiated mice (796 cGys, LD50); assay: 30-day survival after irradiation, murine HS-ARS model; format: in vivo, C57B1/6 mice; conditions: 30 days
Experimental: Male and female C57B1/6 mice were purchased from Jackson Laboratories at 10-12 weeks of age. Mice were housed in microisolator cages (5 mice per cage) with sterilized direct contact bedding (Alpha Dri). Animal holding rooms were maintained at 21±3° C. with 30 to 80% relative humidity, with at least 10 air changes per hour of 100% fresh air, and a 12-hour light/dark cycle. Mice were fed ad libitum with commercial rodent chow (Harlan 2018SXC) in cage hoppers and acidified (pH 2.0-3.0) water in sipper tube bottles. The Institutional Animal Care and Use Committee of IUSM approved all protocols.
Mice were placed in single chambers of a plexiglass irradiation pie (Braintree), with 15 mice per pie, alternating groups of males and females within the same pie. The mice in each group of mice, irradiated together in the same pie, were divided equally among all treatment groups to ensure that each group received the same irradiation exposure conditions. […]
Cohorts of 20-40 mice were irradiated with an LD50 dose from a ^137Cs source. […] Animals were monitored for morbidity and mortality twice/daily for 30 days and euthanized when moribund. Referring now to FIG. 2A, survival curves were analyzed with a log-rank test. […]
Moribund mice were scored for signs of early euthanasia based on three parameters: the severity of hunched posture, squinted/closed eyes, and decreased activity. Each criterion was scored on a scale of 1 to 3, with 3 being the most severe. Moribund mice with a score of 8 or 9 were euthanized and the date of death was recorded.
Irradiated mice with therapeutic exogenously provided amounts of PGE2 mitigated the damage to hematopoietic cells observed post-irradiation with dmPGE2 treatment, using a murine HS-ARS model developed by Dr. Orschell at IUSM. […] Animals were monitored for morbidity and mortality twice/daily for 30 days and euthanized when moribund. Survival curves were analyzed with a log-rank test.

[3] = test system: bone marrow HPC; assay: NSAID effect on bone marrow progenitor cell expansion in non-irradiated mice (CFU-GM); format: in vivo; conditions: NSAID twice daily for 4 days, assayed on day 5
Experimental: Mice were administered dual (Indomethacin, meloxicam), COX2 selective (Valdecoxib) or COX1 selective (SC560) inhibitors twice daily for 4 days. Referring now to FIG. 1, on day 5, mice were sacrificed, bone marrow from one femur isolated, total nucleated cells counted on a Hemavet 950FS and CFU-GM determined. Data are Mean±SEM for N=5 mice per group, each assayed individually.

[4] = test system: HSC; conditions: WO 2010/054271, cited from earlier work

SMILES: Cc1cnc(NC(=O)C2=C(O)c3ccccc3S(=O)(=O)N2C)s1 [meloxicam, 4-hydroxy-2-methyl-N-(5-methyl-2-thiazolyl)-2H-1,2-benzothiazine-3-carboxamide-1,1-dioxide]
- bone marrow CFC content versus control ([1]; 6 mg/kg once daily on days 2 through 5 post-irradiation, femurs 35 days post-irradiation): significantly increased bone marrow CFC content compared to control
- percent survival ([2]; 6 mg/kg once daily on days 2 through 5 post-irradiation, control 50% survival, P=0.034): 80%
- HPC expansion in bone marrow [3]: increase HPCs within the bone marrow

SMILES: CCCCC[C@H](O)/C=C/[C@H]1[C@H](O)CC(=O)[C@@H]1C/C=C\CCCC(=O)O [PGE2, prostaglandin E2]
- homing/engraftment in bone marrow transplants [4]: increased homing/engraftment
- apoptosis of HSC ([4]; through up-regulation of Survivin): decreased apoptosis

SMILES: CCCCC(C)(C)[C@H](O)/C=C/[C@H]1[C@H](O)CC(=O)[C@@H]1C/C=C\CCCC(=O)O [dmPGE2, 16,16 dimethyl prostaglandin E2]
- marrow HPC (total CFC per femur) versus control irradiated mice ([1]; single subcutaneous dose 40 μg/mouse at 6 hours post-irradiation, 796 cGys, day 35): significantly higher than control irradiated mice
- percent survival ([2]; single subcutaneous dose 40 μg/mouse at 6 hours post-irradiation, 796 cGys, control 50% survival, P=0.0011): 95%

SMILES: [Cl][Co][Cl] [CoCl2, cobalt chloride]
- CFC in bone marrow ([1]; single subcutaneous dose 60 mg/kg at 6 hours post-irradiation, day 35): significantly increased CFC in bone marrow
- percent survival ([2]; single subcutaneous dose 60 mg/kg at 6 hours post-irradiation, P=0.0011): 95%
